Experimental data: patent publication US20160374979A1, “Method of Treatment of Alopecia with Monoterpenoids” (CELLMID LIMITED, priority 2013, published 2016)
“Also recorded” adds a separate entry of the source.

Columns and labels:
[1] = system: FGF-5-dependent cell proliferation (FR-BaF3 cells expressing FGFR-1c); assay: FR-Ba/F3 cell proliferation/viability assay in the presence of FGF-5 (CCK-8); format: cell-based, murine; conditions: for FGF-5-inhibitory activity (in words): judged from FR-BaF3 result; for Suppression of FGF-5-dependent cell proliferation and viability: FR-BaF3 cells, in words (FIGS. 1(a)-1(h)); for FGF-5 Specificity IL-1/FGF-5: ratio of the IC50 with IL-3 to the IC50 with FGF-5, BR: less reproducible
Protocol: Ba/F3 is a murine interleukin-3 (IL-3)-dependent pro-B cell line. […] That is, compounds were tested for their ability to modulate proliferation of FR-Ba/F3 cells in the presence of recombinant human FGF-5 (rhFGF-5) prepared according to Maeda et al., Nishi Nihon Hifuka, 69(1): 81-86, 2007.
Briefly, a suitable plasmid expressing FGFR-1c was introduced into […] ER-Ba/F3 cells, and the cells were maintained in RPMI RPMI-1640 with 10% FBS and 1.3×10^−17 M of murine IL-3 (Sigma, St Louis, […].) containing antibiotic G418 sulfate (Promega, Medison, Wis.). The inventors compared proliferation of FR/BaF3 cells in culture medium containing IL3 or FGF-5 and a different concentration in the range from 0.005% (w/v) to 1.0% (w/v) of each test compound listed in Example 1. The FR-BaF3 cells were seeded at 5×10^4/mL cells per well in 96-well, micro-culture plates (Falcon) in RPMI-1640 culture medium containing 10% fetal bovine serum, 5 μg/mL heparin. Recombinant human FGF-5 (rhFGF-5; 1 μg/mL) was added to one group, and IL-3 (0.2 ng/mL) (Sigma) was added to another group. The test compounds were then introduced to the micro-culture plate wells. Total volume of media per well was 100 μl. Control groups lacking test compound were also prepared for each of the IL-3-supplemented and FGF-5-supplemented samples. The plates were then incubated at 37° C. in 5% CO2 for 3 days.
After 3 days, colorimetric assays were performed using a Cell Counting Kit-8 (CCK-8) (Wako) according to the manufacturer's instructions to measure cell proliferation or suppression thereof by the test compound at varying concentrations. Briefly, 10 μl (1:2 dilution) of the CCK-8 reagent was added to each micro-culture plate well after which time the plates were incubated at […] for 3 hours. Absorbance at 450 nm was then measured using a microplate reader. Cell viability and proliferation for the IL-3-supplemented and FGF-5-supplemented groups was calculated as a measure of the optical density (OD) of cells treated with a test compound relative to the OD of the respective untreated controls, excluding the OD of blank controls (media only). Dose response curves were plotted and the respective inhibitory concentrations (IC50) for the test compounds were determined.

[2] = system: Alkaline Phosphatase (ALP) activity in dermal papilla (DP) cells treated with FGF-5; assay: Dermal papilla alkaline phosphatase (DP-ALP) cell assay; format: cell-based, human; conditions: for relative ALP activity of DP cells treated FGF-5: 0.005-0.5 mg/ml, GSK3 inhibitor IX + rhFGF-5 1 μg/mL, 3 days, absorbance 490 nm; for FGF-5-inhibitory activity ranked from most active to least active by DP-ALP assay: rank order
Protocol: Dermal papilla cells were prepared according to the methods described in WO2013/105417, Briefly, hairs were pulled from the scalp of a healthy subject showing normal non-alopecia hair growth using tweezers. Hair follicles with dermal papilla were thus obtained at a rate of approximately one for every 100 hairs pulled. The hair follicles with dermal papilla were separated from the hair using tweezers and transferred into a saline for inspection under a microscope. Under a microscope, each dermal papilla was isolated from a respective hair follicle using tweezers and a scalpel. Approximately 2000 isolated dermal papilla cells were then transferred to a 35 mm cell culture dish together 1-2 ml of cell culture medium, after which time the cells were cultured at 37° C. to produce a primary cell culture of dermal papilla. The cell culture medium consisted of approximately 90% DMEM medium, 10% fetal bovine serum (final concentration: 10%), FGF2 (final, concentration: 10 ng/ml), and penicillin-streptornycin solution (final concentration: 1 μg/ml) for every 2 mL of medium. Cell culture conditions were maintained for more than 14 days until dermal papilla cells covered approximately 40% of the area of the 35 mm culture dish, at which time subcultures were performed. To prepare the subcultures, the cell culture medium was removed from the 35 mm culture dish and the adherent cells were washed once with 2 ml of saline (at room temperature). 1 ml Trypsin-EDTA solution (0.1% trypsin and 0.02% EDTA) was then added to the 35 mm culture dish and left to stand for 4 minutes at 37° C. Dissociated dermal papilla cells were then recovered from the 35 mm dish, and seeded to a new 100 mm dish, and cultured in media under the same conditions as for the primary cell culture described above.
When the dermal papilla cells covered approximately 70-80% of the area of each 100 mm culture dish, the sub-confluent cells were subcultured as before. The process was repeated until sufficient cells were obtained to screen compounds of interest.
Once sufficient DP cells were obtained, the cells were harvested to provide a cell suspension. To harvest the DP cells, the cell culture medium was removed from the culture dish, and the adherent cells were washed with saline at room temperature. Trypsin-EDTA solution was then added under conditions described supra to dissociate the cells from the cell culture dish. Approximately 5×10^5 of the dissociated cells were resuspended in 500 ml of assay medium containing 445 ml of DMEM medium, 50 ml of 10% fetal calf serum and 5 ml of antibiotic.
Aliquots of the cell suspension were transferred to the wells of cell culture dishes, and a single monoterpenoid listed in Example 1 e.g., (−)-4-terpinen-4-ol, (+)-4-terpinen-4-ol. (±)-4-terpinen-4-ol, α-terpineol, nonanal, linalyl acetate or piperitone, is added to each well at a concentration of 0.005 (mg/ml) or 0.01 (mg/ml) or 0.05 (mg/ml) or 0.1 (mg/ml) or 0.5 (mg/ml). Cell suspensions were transferred to wells of a further cell culture dish to which minoxidil was then added at a concentration of 0.005 (mg/ml) or 0.01 (mg/ml) or 0.05 (mg/ml) or 0.1 (mg/ml) or 0.5 (mg/ml). A Wnt/β-catenin pathway activation agent e.g., Wnt3a or GSK-3 Inhibitor IX, as added to each of the cell cultures to produce an “activated cell culture”. Control cell cultures containing the same monoterpenoid compound or minoxodil, but lacking the Wnt/β-cinenin pathway activation agent, were processed in parallel. These activated and control cell cultures were divided further into duplicate cell culture samples either lacking FGF-5 or to which recombinant human FGF-5 (rhFGF-5; 1 μg/mL)) was added.
The cell culture samples were each cultured at 37° C. for 3 days under atmosphere containing less than 5% CO2. […]

Structure (SMILES) | FGF-5-inhibitory activity (in words) [1] | relative ALP activity of DP cells treated FGF-5 [2] | FGF-5-inhibitory activity ranked from most active to least active by DP-ALP assay [2] | Suppression of FGF-5-dependent cell proliferation and viability [1] | FGF-5 Specificity IL-1/FGF-5 [1] | FGF-5-inhibitory activity (in words) ([1]; listed as (−)-terpinen-4-ol)
CC1=CCC(O)(C(C)C)CC1 (racemic) [(±)-4-Terpinen-4-ol, 1-Isopropyl-4-methyl-3-cyclohexen-1-ol] | potent FGF-5-inhibitory active substances | increased relative ALP activity | Piperitone>(−)-terpinen-4-ol>(±)-Terpinen-4β-Terpineol> (+)-Terpinen-4-ol > Linalyl Acetate | – | – | –
CC1=CCC(C(C)(C)O)CC1 (stereo not drawn) [α-Terpineol, 2-(4-Methyl-3-cyclohexen-1-yl)-2-propanol] | potent FGF-5-inhibitory active substances | increased relative ALP activity | Piperitone>(−)-terpinen-4-ol>(±)-Terpinen-4β-Terpineol> (+)-Terpinen-4-ol > Linalyl Acetate | Suppression of FGF-5-dependent cell proliferation and viability was observed | 5> | –
C=C(C)C1CC=C(C)C(O)C1 (stereo not drawn) [l-Carveol, 2-Methyl-5-(1-methylethenyl)-2-cyclohexen-1-ol] | – | – | – | Suppression of FGF-5-dependent cell proliferation and viability was observed | 2 | –
CC1=CC[C@@](O)(C(C)C)CC1 [(−)-4-Terpinen-4-ol, (R)-1-Isopropyl-4-methyl-3-cyclohexen-1-ol] | potent FGF-5-inhibitory active substances | high alkaline phosphatase activity; also recorded: higher alkaline phosphatase activity in dermal papillae than a racemic mixture of terpinen-4-al or (+)-Terpinen-4-ol; also recorded: increased relative ALP activity | Piperitone>(−)-terpinen-4-ol>(±)-Terpinen-4β-Terpineol> (+)-Terpinen-4-ol > Linalyl Acetate | Suppression of FGF-5-dependent cell proliferation and viability was observed | 2> | high FGF-5 inhibitory activity; also recorded: higher FGF-5 inhibitory activity than (+)-terpinen-4-ol
CC1=CC[C@](O)(C(C)C)CC1 [(+)-4-Terpinen-4-ol, (1S)-1-Isopropyl-4-methyl-3-cyclohexen-1-ol] | potent FGF-5-inhibitory active substances | increased relative ALP activity | Piperitone>(−)-terpinen-4-ol>(±)-Terpinen-4β-Terpineol> (+)-Terpinen-4-ol > Linalyl Acetate | Suppression of FGF-5-dependent cell proliferation and viability was observed | 9.1> | –
C=CC(C)(O)CCC=C(C)C (stereo not drawn) [Linalool, 3,7-Dimethyl-1,6-octadien-3-ol] | – | – | – | Suppression of FGF-5-dependent cell proliferation and viability was observed | 30> (BR) | –
CCCCCCCCC=O [Nonanal, reference compound] | potent FGF-5-inhibitory active substances | – | – | – | 9 | –
C=CC(C)(CCC=C(C)C)OC(C)=O (stereo not drawn) [Linalyl acetate, 3,7-Dimethyl-1,6-octadien-3-yl acetate] | potent FGF-5-inhibitory active substances | – | Piperitone>(−)-terpinen-4-ol>(±)-Terpinen-4β-Terpineol> (+)-Terpinen-4-ol > Linalyl Acetate | Suppression of FGF-5-dependent cell proliferation and viability was observed | – | –
CC(=O)OC/C=C(\C)CCC=C(C)C [Geranyl acetate, (2E)-3,7-Dimethyl-2,6-octadien-1-yl acetate] | – | – | – | Suppression of FGF-5-dependent cell proliferation and viability was observed | 8 (BR) | –
